# In PubChem BioAssay (NCI):
#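 96-well plates; 48 h exposure; 5 concentrations. Endpoints by linear interpolation between flanking doses. Not reached: highest tested concentration assigned. TGI denotes the concentration required for complete inhibition of growth.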
# What was measured:
# Experiment in all cases: growth of human tumour cells (NCI), 48 h
# CAKI-1 renal = system: CAKI-1 renal
# HCT-15 colon = system: HCT-15 colon
# HL-60(TB) leukemia = system: HL-60(TB) leukemia
# HS 578T breast = system: HS 578T breast
# HT29 colon = system: HT29 colon
# KM12 colon = system: KM12 colon
# MCF7 breast = system: MCF7 breast
# NCI-H226 lung = system: NCI-H226 lung
# NCI-H522 lung = system: NCI-H522 lung
# OVCAR-4 ovarian = system: OVCAR-4 ovarian
# OVCAR-5 ovarian = system: OVCAR-5 ovarian
# OVCAR-8 ovarian = system: OVCAR-8 ovarian
# SF-268 CNS = system: SF-268 CNS
# SK-MEL-2 melanoma = system: SK-MEL-2 melanoma
# SNB-75 CNS = system: SNB-75 CNS
# T-47D breast = system: T-47D breast
# U251 CNS = system: U251 CNS
# UACC-257 melanoma = system: UACC-257 melanoma
# UACC-62 melanoma = system: UACC-62 melanoma
# DMS 273 small cell lung = system: DMS 273 small cell lung
SMILES,TGI (CAKI-1 renal) [µM],TGI (HCT-15 colon) [µM],TGI (HL-60(TB) leukemia) [µM],TGI (HS 578T breast) [µM],TGI (HT29 colon) [µM],TGI (KM12 colon) [µM],TGI (MCF7 breast) [µM],TGI (NCI-H226 lung) [µM],TGI (NCI-H522 lung) [µM],TGI (OVCAR-4 ovarian) [µM],TGI (OVCAR-5 ovarian) [µM],TGI (OVCAR-8 ovarian) [µM],TGI (SF-268 CNS) [µM],TGI (SK-MEL-2 melanoma) [µM],TGI (SNB-75 CNS) [µM],TGI (T-47D breast) [µM],TGI (U251 CNS) [µM],TGI (UACC-257 melanoma) [µM],TGI (UACC-62 melanoma) [µM],TGI (DMS 273 small cell lung) [µM]
CSC1=C(C)S/C(=C\c2ccc(/C=C3\SC(C)=C(SC)S3)cc2)S1,> 100,> 100,> 100,> 100,> 100,> 100,> 100,> 100,> 100,> 100,> 100,> 100,> 100,> 100,> 100,> 100,> 100,> 100,> 100,
Cc1cccc2c1CC(C1OC(=O)c3c(C)cccc31)C2=O (stereo unspecified),> 100,> 100,> 100,> 100,> 100,> 100,> 100,> 100,> 100,> 100,> 100,> 100,> 100,> 100,> 100,> 100,> 100,> 100,> 100,
COc1ccccc1/[N+]([O-])=C/c1ccccc1OC(=S)S,> 100,> 100,74.5,> 100,> 100,> 100,> 100,> 100,71.4,> 100,> 100,66.2,> 100,80.2,> 100,> 100,> 100,> 100,> 100,
N/C(=N\Nc1cccc(Cl)c1)c1cccnc1,> 100,> 100,> 66.9,> 100,> 83.9,> 100,> 100,> 100,> 100,> 100,> 100,> 100,> 100,> 100,99.7,> 92.6,> 100,> 81.5,> 100,
CN(C)c1ccc(/C=C(\NC(=O)c2ccccc2)c2nc3ccccc3c(=O)o2)cc1,> 100,> 100,> 100,> 100,> 100,> 100,> 100,> 100,> 100,> 100,> 100,> 100,> 100,> 100,> 100,> 100,> 100,> 100,> 100,
O=c1oc2ccccc2cc1-c1nc2ccccc2c(=O)[nH]1,> 100,> 100,> 100,> 100,> 100,> 100,> 100,> 100,> 100,> 100,> 100,> 100,> 100,> 100,> 100,> 100,> 100,> 100,> 100,
COc1ccc(C[C@H]2NC[C@H](OC(C)=O)[C@H]2OC(C)=O)cc1,0.544,0.975,0.326,0.465,1.04,1.46,> 100,1.08,0.289,0.706,0.679,2,0.308,0.627,0.362,0.7,1.6,2.98,4.23,
CN1NC2=NCCN=C3NN(C)C(=NCCN=C1S2)S3,,> 100,> 100,,> 100,> 100,,> 100,> 100,> 100,> 100,> 100,> 100,,> 100,,> 100,> 100,> 100,> 100
CC[N+](C)(C)c1ccc(C(=C2C=CC(=[N+](C)C)C=C2)c2ccc(N(C)C)cc2)cc1,> 100,89.4,6,,30.6,17.5,,52.8,9.37,38.3,> 100,64.9,32.4,56.8,33.8,,14,28.6,29.7,25.6
NS(=O)(=O)c1ccc(NC(=S)/N=C/c2c(O)c3ccccc3[nH]c2=O)cc1,> 100,> 100,5.05,> 100,> 100,> 100,> 100,> 100,> 100,> 100,> 100,> 100,> 100,> 100,> 100,> 100,> 100,> 100,> 100,
CN(O)C(=O)c1ccc(OCc2cccc(Cl)c2)cc1,> 92.6,> 100,22.2,> 100,> 100,> 100,> 100,> 100,> 100,> 100,> 100,> 95.9,> 100,> 100,> 100,98.6,> 100,> 100,> 79.4,
COc1ccc(/C=C/C(=N/NC(=O)N/N=C(/C=C/c2ccc(OC)cc2)C(C)C)C(C)C)cc1,> 100,> 100,> 100,> 100,> 100,> 100,> 100,> 100,> 100,> 100,> 100,> 100,> 100,> 100,> 100,> 100,> 100,> 100,> 100,
O=C(c1c(F)c(F)c(F)c(F)c1F)n1c(=O)[nH]c2ccccc21,11.3,15.6,5.05,38.8,18,5.15,16.8,33.4,13.6,31.8,29.7,27,34.1,17.5,30.5,17.6,25.5,19.7,25.5,
